US10202361B2, “Pyridazinones as herbicides” (E I DU PONT DE NEMOURS AND COMPANY, priority 2014, dated 2019)
Read-outs that look alike come from different tables or passages of the source.

Key:
Assay type in all cases: in vivo
[1] = test system: morningglory (Ipomoea spp.); experiment: Test A pre-/postemergence greenhouse herbicide test; details: Ipomoea, 240 h, 0 to 100 scale (0 no effect, 100 complete control), approx. 10 d, read-out: Plant response rating, Morningglory; for pest or weed control at 125 g/ha: 125 g ai/ha; for pest or weed control at 500 g/ha: 500 g ai/ha
Summary of the method: (§1)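 Seeds sown in loam–sand blend received a directed preemergence soil spray; postemergence spray was applied at the same time to plants 2–10 cm tall at one- to two-leaf stage. Compounds were in non-phytotoxic solvent with surfactant. Visual injury versus untreated controls after ~10 d in greenhouse, 0–100 scale (100 = complete control).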

[2] = test system: pigweed (Amaranthus retroflexus); experiment: as above; details: Amaranthus retroflexus, 240 h, 0 to 100 scale (0 no effect, 100 complete control), approx. 10 d, read-out: Plant response rating, Pigweed; for pest or weed control at 125 g/ha: 125 g ai/ha; for pest or weed control at 500 g/ha: 500 g ai/ha
Summary of the method: as §1

[3] = test system: foxtail, giant (giant foxtail, Setaria faberii); experiment: as above; details: Setaria faberi, 240 h, 0 to 100 scale (0 no effect, 100 complete control), approx. 10 d, read-out: Plant response rating, Foxtail, Giant; for pest or weed control at 125 g/ha: 125 g ai/ha; for pest or weed control at 500 g/ha: 500 g ai/ha
Summary of the method: as §1

[4] = test system: crabgrass, Large (large crabgrass, Digitaria sanguinalis); experiment: as above; details: Digitaria sanguinalis, 240 h, 0 to 100 scale (0 no effect, 100 complete control), approx. 10 d, read-out: Plant response rating, Crabgrass, Large; for pest or weed control at 125 g/ha: 125 g ai/ha; for pest or weed control at 500 g/ha: 500 g ai/ha
Summary of the method: as §1

[5] = test system: wheat (Triticum aestivum); experiment: as above; details: Triticum aestivum, 240 h, 0 to 100 scale (0 no effect, 100 complete control), approx. 10 d, read-out: Plant response rating, Wheat; for plant injury at 125 g/ha: 125 g ai/ha; for plant injury at 500 g/ha: 500 g ai/ha
Summary of the method: as §1

[6] = test system: barnyardgrass (Echinochloa crus-galli); experiment: as above; details: Echinochloa crus-galli, 240 h, 0 to 100 scale (0 no effect, 100 complete control), approx. 10 d, read-out: Plant response rating, Barnyardgrass; for pest or weed control at 125 g/ha: 125 g ai/ha; for pest or weed control at 500 g/ha: 500 g ai/ha
Summary of the method: as §1

[7] = test system: corn (Zea mays); experiment: as above; details: Zea mays, 240 h, 0 to 100 scale (0 no effect, 100 complete control), approx. 10 d; for Corn plant response rating (crop injury, 0 = no effect, 100 = complete kill) at 125 g/ha: 125 g ai/ha; for Corn plant response rating (crop injury, 0 = no effect, 100 = complete kill) at 500 g/ha: 500 g ai/ha
Summary of the method: as §1

[8] = test system: velvetleaf (Abutilon theophrasti); experiment: as above; details: Abutilon theophrasti, 240 h, 0 to 100 scale (0 no effect, 100 complete control), approx. 10 d, read-out: Plant response rating, Velvetleaf; for pest or weed control at 125 g/ha: 125 g ai/ha; for pest or weed control at 500 g/ha: 500 g ai/ha
Summary of the method: as §1

[9] = test system: soybean (Glycine max); experiment: Test C pre-/postemergence greenhouse herbicide test; details: Preemergence; for plant injury at 62 g/ha: 62 g ai/ha; for Plant response rating, Soybean: visual rating on scale 0 (no effect) to 100 (complete control), 13 to 15 d
Text: Seeds of plant species selected from blackgrass (Alopecurus myosuroides), bromegrass, downy (downy bromegrass, Bromus tectorum), foxtail, green (green foxtail, Setaria viridis), ryegrass, Italian (Italian ryegrass, Lolium multiflorum), wheat (winter wheat, Triticum aestivum), oat, wild (wild oat, Avena fatua), galium (catchweed bedstraw, Galium aparine), bermudagrass (Cynodon dactylon), surinam grass (Brachiaria decumbens), cocklebur (common cocklebur, Xanthium strumarium), corn (Zea mays), crabgrass, large (large crabgrass, Digitaria sanguinalis), cupgrass, woolly (woolly cupgrass, Eriochloa villosa), foxtail, giant (giant foxtail, Setaria faberii), goosegrass (Eleusine indica), johnsongrass (Sorghum halepense), kochia (Kochia scoparia), lambsquarters (Chenopodium album), morningglory (Ipomoea coccinea), nightshade (eastern black nightshade, Solanum ptycanthum), nutsedge, yellow (yellow nutsedge, Cyperus esculentus), pigweed (Amaranthus retroflexus), ragweed (common ragweed, Ambrosia elatior), soybean (Glycine max), sunflower (common oilseed sunflower, Helianthus annuus), Russian thistle (Salsola kali), barnyardgrass (Echinochloa crus-galli), oilseed rape (Brassica napus), waterhemp (common waterhemp, Amaranthus rudis), and velvetleaf (Abutilon theophrasti) were planted into a blend of loam soil and sand and treated preemergence with test chemicals formulated in a non-phytotoxic solvent mixture which included a surfactant.
At the same time, plants selected from these crop and weed species and also barley (winter barley, Hordeum vulgare), canarygrass (Phalaris minor), windgrass (Apera spica-venti), deadnettle (henbit deadnettle, Lamium amplexicaule), and chickweed (common chickweed, Stellaria media) were planted in pots containing Redi-Earth® planting medium (Scotts Company, 14111 Scottslawn Road, Marysville, Ohio 43041) comprising spaghnum peat moss, vermiculite, wetting agent and starter nutrients and treated with postemergence applications of test chemicals formulated in the same manner. Plants ranged in height from 2 to 18 cm (1- to 4-leaf stage) for postemergence treatments. Treated plants and controls were maintained in a greenhouse for 13 to 15 d, after which time all species were compared to controls and visually evaluated. Plant response ratings, summarized in Table C, are based on a scale of 0 to 100 where 0 is no effect and 100 is complete control. A dash (-) response means no test result.

[10] = Glycine max, pre-emergence, Soybean, read-out: Plant response rating

| SMILES | pest or weed control at 125 g/ha ([1]; post-emergence, Postemergence) [%] | pest or weed control at 500 g/ha ([1]; post-emergence, Postemergence) [%] | pest or weed control at 125 g/ha ([1]; pre-emergence, Preemergence) [%] | pest or weed control at 500 g/ha ([1]; pre-emergence, Preemergence) [%] | pest or weed control at 125 g/ha ([2]; post-emergence, Postemergence) [%] | pest or weed control at 500 g/ha ([2]; post-emergence, Postemergence) [%] | pest or weed control at 125 g/ha ([2]; pre-emergence, Preemergence) [%] | pest or weed control at 500 g/ha ([2]; pre-emergence, Preemergence) [%] | pest or weed control at 125 g/ha ([3]; post-emergence, Postemergence) [%] | pest or weed control at 500 g/ha ([3]; post-emergence, Postemergence) [%] | pest or weed control at 125 g/ha ([3]; pre-emergence, Preemergence) [%] | pest or weed control at 500 g/ha ([3]; pre-emergence, Preemergence) [%] | pest or weed control at 125 g/ha ([4]; post-emergence, Postemergence) [%] | pest or weed control at 500 g/ha ([4]; post-emergence, Postemergence) [%] | pest or weed control at 125 g/ha ([4]; pre-emergence, Preemergence) [%] | pest or weed control at 500 g/ha ([4]; pre-emergence, Preemergence) [%] | plant injury at 125 g/ha ([5]; post-emergence, Postemergence) [%] | plant injury at 500 g/ha ([5]; post-emergence, Postemergence) [%] | plant injury at 125 g/ha ([5]; pre-emergence, Preemergence) [%] | plant injury at 500 g/ha ([5]; pre-emergence, Preemergence) [%] | also measured |
| --- | --- | --- | --- | --- | --- | --- | --- | --- | --- | --- | --- | --- | --- | --- | --- | --- | --- | --- | --- | --- | --- |
| CCOc1cc(=O)n(-c2ccc(F)cc2)nc1C(O)c1ccnc(C(F)(F)F)c1 (stereo not shown) [Compound 23, 5-ethoxy-2-(4-fluorophenyl)-6-[hydroxy[2-(trifluoromethyl)-4-pyridinyl]methyl]-3(2H)-pyridazinone] | 20 | 60 | 100 | 100 | 100 | 100 | 100 | 100 | 50 | 90 | 100 | 100 | 60 | 100 | 100 | 100 | 80 | 90 | 0 | 90 | pest or weed control at 125 g/ha ([6]; post-emergence, Postemergence): 20%; pest or weed control at 500 g/ha ([6]; post-emergence, Postemergence): 100%; pest or weed control at 125 g/ha ([6]; pre-emergence, Preemergence): 20%; pest or weed control at 500 g/ha ([6]; pre-emergence, Preemergence): 100%; Corn plant response rating (crop injury, 0 = no effect, 100 = complete kill) at 125 g/ha ([7]; post-emergence, Postemergence): 50%; Corn plant response rating (crop injury, 0 = no effect, 100 = complete kill) at 500 g/ha ([7]; post-emergence, Postemergence): 90%; Corn plant response rating (crop injury, 0 = no effect, 100 = complete kill) at 125 g/ha ([7]; pre-emergence, Preemergence): 0%; Corn plant response rating (crop injury, 0 = no effect, 100 = complete kill) at 500 g/ha ([7]; pre-emergence, Preemergence): 20%; pest or weed control at 125 g/ha ([8]; post-emergence, Postemergence): 20%; pest or weed control at 500 g/ha ([8]; post-emergence, Postemergence): 70%; pest or weed control at 125 g/ha ([8]; pre-emergence, Preemergence): 80%; pest or weed control at 500 g/ha ([8]; pre-emergence, Preemergence): 100%; plant injury at 62 g/ha [9, 10]: 25%; Plant response rating, Soybean ([9]; 8 g ai/ha): 0; Plant response rating, Soybean ([9]; 16 g ai/ha): 0 |
| CCOc1cc(=O)n(-c2ccc(F)cc2)nc1Cc1ccnc(C(F)(F)F)c1 [Compound 25, 5-ethoxy-2-(4-fluorophenyl)-6-[[2-(trifluoromethyl)-4-pyridinyl]methyl]-3 (2H)-pyridazinone] | 40 | 90 | 30 | 90 | 100 | 100 | 100 | 100 | 70 | 90 | 100 | 100 | 80 | 90 | 100 | 100 | 60 | 70 | 30 | 60 | pest or weed control at 125 g/ha ([6]; post-emergence, Postemergence): 80%; pest or weed control at 500 g/ha ([6]; post-emergence, Postemergence): 90%; pest or weed control at 125 g/ha ([6]; pre-emergence, Preemergence): 90%; pest or weed control at 500 g/ha ([6]; pre-emergence, Preemergence): 100%; Corn plant response rating (crop injury, 0 = no effect, 100 = complete kill) at 125 g/ha ([7]; post-emergence, Postemergence): 70%; Corn plant response rating (crop injury, 0 = no effect, 100 = complete kill) at 500 g/ha ([7]; post-emergence, Postemergence): 80%; Corn plant response rating (crop injury, 0 = no effect, 100 = complete kill) at 125 g/ha ([7]; pre-emergence, Preemergence): 50%; Corn plant response rating (crop injury, 0 = no effect, 100 = complete kill) at 500 g/ha ([7]; pre-emergence, Preemergence): 50%; pest or weed control at 125 g/ha ([8]; post-emergence, Postemergence): 60%; pest or weed control at 500 g/ha ([8]; post-emergence, Postemergence): 100%; pest or weed control at 125 g/ha ([8]; pre-emergence, Preemergence): 40%; pest or weed control at 500 g/ha ([8]; pre-emergence, Preemergence): 100%; plant injury at 62 g/ha [9, 10]: 20%; plant injury at 125 g/ha ([9]; Glycine max, pre-emergence, Soybean, 125 g ai/ha, read-out: Plant response rating): 35%; plant injury at 250 g/ha ([9]; Glycine max, pre-emergence, Soybean, 250 g ai/ha, read-out: Plant response rating): 65% |
